Assays:
SCC84 (#84) cells = experiment: MTT cell viability, HPV- HNSCC cell line #84 with TRAIL; format: cell-based; conditions: 50 ng/ml TRAIL with myricetin 0-200 μM or spinacine 0-100 μM
Experimental: FIGS. 7A-E are graphs showing myricetin and spinacine (5) re-sensitized HPV^+, but not HPV^−, head and neck cancer cell lines to treatment with TRAIL. (FIG. 7A) Both HPV^− and HPV^+ HN cancer cell lines display resistance to TRAIL treatment. HPV^− (#84) (Myricetin—FIG. 7B; Spinacine—FIG. 7C) and HPV^+ (#90) (FIG. 7D; Spinacine—FIG. 7E) head and neck cancer cell lines (2×10^4 cells per well) were seeded into 96-well plates and allowed to incubate overnight, then cells were pre-treated with myricetin (0-200 μM) or spinacine (0-100 μM) for 4 h. […] Cell viability was measured by the MTT assay, and the viability of cells untreated with small molecules was set at 100%. Experiments were performed in triplicate, and error bars indicate the standard deviation.
As shown above, myricetin and spinacine sensitize SiHa cells to TRAIL and chemotherapy drugs. […] Other types of HPV^+ cancer cells were examined, and in particular, head and neck squamous cell carcinoma (HNSCC) cells can also be sensitized in this manner. […]
(§1) The extracellular domain of human TRAIL was cloned into a pTriEx expression plasmid containing N-terminal Hisx6 tag. […] All experiments were repeated at least three times (three biological replicates, carried out on different days), with each experimental group measured in triplicate within each of these individual experiments. […]

SiHa cells = experiment: MTT cell viability, SiHa cells with doxorubicin or cisplatin; format: cell-based, human; conditions: 100 μM myricetin, 50 μM spinacine added 4 h prior; compared to negative control
Experimental: FIGS. 3A-E are graphs providing data regarding resistance of HPV^+ SiHa cells to TRAIL-, cisplatin- and […] apoptosis, in the presence and absence of small molecules as disclosed herein. (FIG. 3A) HPV^+ SiHa cells are resistant to TRAIL-induced apoptosis as compared to the human osteosarcoma cell line U2OS. Cells (2×10^4 cells per well) were seeded into a 96-well plate, allowed to incubate overnight, and then treated with indicated concentration of TRAIL in the presence of cycloheximide (5 μg/ml). The viability of cells was measured after overnight incubation using the MTT assay; the viability of cells untreated with TRAIL was set at 100% for each group. (FIG. 3B) The indicated concentrations of three small molecules were added to SiHa cells, and an MTT assay was preformed after overnight incubation. The viability of cells untreated with small molecules was set as 100%. […] Cell viability was measured after overnight incubation using the MTT assay, and the viability of cells untreated with either myricetin or spinacine was set at 100%. […]
as §1

O=c1c(O)c(-c2cc(O)c(O)c(O)c2)oc2cc(O)cc(O)c12 [Myricetin, reference compound]
response of HPV- HNSCC cell line #84 to TRAIL (in words) (SCC84 (#84) cells): resistant
sensitivity of SiHa cells to doxorubicin and cisplatin (in words) (SiHa cells): increased the sensitivity

O=C(O)C1Cc2[nH]cnc2CN1 (stereo not shown) [Compound 5, 4,5,6,7-Tetrahydro-1H-imidazo(4,5-c)pyridine-6-carboxylic acid]
response of HPV- HNSCC cell line #84 to TRAIL (in words) (SCC84 (#84) cells): resistant
sensitivity of SiHa cells to doxorubicin and cisplatin (in words) (SiHa cells): increased the sensitivity

Reference: patent US20180200233A1, “COMPOSITIONS FOR PREVENTING CANCERS ASSOCIATED WITH HUMAN PAPILLOMA VIRUSES” (Loma Linda University, priority 2015, published 2018)
